We go through ten compounds from patent US9850283B2, “Macrocyclic inhibitors of the PD-1/PD-L1 and CD80(B7-1)/PD-L1 protein/protein interactions” (BRISTOL-MYERS SQUIBB COMPANY, priority 2013, dated 2017).

SMILES strings stand for the structures. Like-named read-outs stand apart in the source and are kept apart here. Starred links: 1 amine or outer side, 2 acyl side, 3 side chain; linkers in the order of their positions; H or OH if unused. Positions of bridges follow the written chain, without caps; N, C: chain ends. Non-standard residues stand in square brackets, D forms with d. Residues, ends and D or L forms follow the SMILES beside them. ξ: configuration not given here. *: point of attachment. X2 = CCOc1ccc(-c2[nH]c3ccccc3c2C[C@H](N[*:1])C(=O)[*:2])cc1; NHTrityl = c1ccc(C(N*)(c2ccccc2)c2ccccc2)cc1; Phe(4-CH2NH2) = NCc1ccc(C[C@H](N)C(=O)O)cc1; d(cisHyp) = O=C(O)[C@H]1C[C@@H](O)CN1; Bta = N[C@@H](Cc1csc2ccccc12)C(=O)O; Hyp = O=C(O)[C@@H]1C[C@@H](O)CN1; NMeF = CN[C@@H](Cc1ccccc1)C(=O)O; dNMeE = CN[C@H](CCC(=O)O)C(=O)O; NMeNle = CCCC[C@H](NC)C(=O)O; NMeM = CN[C@@H](CCSC)C(=O)O; dPip = O=C(O)[C@H]1CCCCN1; ξR = N=C(N)NCCCC(N)C(=O)O; NMeA = CN[C@@H](C)C(=O)O; Dap = NC[C@H](N)C(=O)O; ξC = NC(CS)C(=O)O; Sar = CNCC(=O)O A value given as a limit tells only on which side of the number the result lay.

One assay has as its target T1, Human PD-L1/PD-1 (Homo sapiens, UniProt Q9NZQ7).
T1 construct: made in house; host or cells: HEK293T
Put plainly: HTRF PD-1-Ig/PD-L1-His binding assay (human PD-L1). Summed up: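 Readout: time-resolved FRET between Eu cryptate-labeled anti-Ig (1 nM final) and APC-labeled anti-His (20 nM final) antibodies. These detect interaction of Fc-fused PD-1 with His-tagged human PD-L1 in dPBS containing 0.1% BSA and 0.05% Tween-20.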
In general terms: TR-FRET usually uses a lanthanide donor and a delayed reading to cut background.

In assay [1] the target is T2, LK35.2-hPD-L1 cells / PE-labeled PD-1-Ig (Homo sapiens, UniProt Q9NZQ7).
T2 construct: expressed in transfected cells; host or cells: LK35.2 mouse B cell line
Put plainly: LK35.2-hPD-L1 cell binding high-content screening assay. Format: cell-based. How it is done: LK35.2-hPD-L1 Cell Binding High-Content Screening Assay. Phycoerythrin (PE) was covalently linked to the Ig epitope tag of human PD-1-Ig and fluorescently-labeled PD-1-Ig was used for binding studies with a mouse B cell line (LK35.2) stably over-expressing human PD-L1 (LK35.2-hPD-L1). Briefly, 3×10^3 LK35.2-hPD-L1 cells were seeded into 384 well plates in 20 ul of RPMI supplemented with 10% fetal calf serum and cultured overnight. 125 nl of compound was added to cells, followed by 5 ul of PE-labeled PD-1-Ig (1 nM final), diluted in RPMI supplemented with 10% fetal calf serum, followed by incubation at 37° C. for 1 h. […] Cells were washed 3× in 100 ul of dPBS followed by final addition of 15 ul of dPBS. Data was collected and processed using a Cell Insight NXT High Content Imager and associated software.

Where [2] appears, read: cluster symbol, read-out: HTRF IC50 cluster.
The mark [3] stands for this setting: cell binding assay, cell line not given, cluster symbol, read-out: CBA IC50 cluster.
Where [4] appears, read: cluster symbol, cell line of CBA not given (LK35.2-hPD-L1 or 293T-hPD-L1), read-out: CBA IC50 cluster.

By IC50 is commonly meant the concentration that gives 50% inhibition.

T1 sequence (Q9NZQ7 with tags, fused parts or gaps): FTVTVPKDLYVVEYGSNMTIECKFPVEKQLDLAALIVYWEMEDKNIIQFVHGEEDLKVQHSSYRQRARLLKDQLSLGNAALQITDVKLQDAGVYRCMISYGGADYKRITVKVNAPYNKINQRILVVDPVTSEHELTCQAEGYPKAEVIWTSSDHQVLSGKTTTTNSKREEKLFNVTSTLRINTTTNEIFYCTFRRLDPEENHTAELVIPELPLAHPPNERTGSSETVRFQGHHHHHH
T2 sequence (Q9NZQ7 19-290): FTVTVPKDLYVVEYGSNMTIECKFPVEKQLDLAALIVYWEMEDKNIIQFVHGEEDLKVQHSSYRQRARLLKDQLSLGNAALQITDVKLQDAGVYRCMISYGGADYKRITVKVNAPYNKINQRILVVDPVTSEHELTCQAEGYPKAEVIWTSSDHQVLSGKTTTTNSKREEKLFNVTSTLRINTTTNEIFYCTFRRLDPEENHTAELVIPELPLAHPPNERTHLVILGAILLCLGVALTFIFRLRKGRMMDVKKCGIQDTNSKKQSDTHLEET

Consider `CCCC[C@H]1C(=O)N(C)[C@@H](CCCC)C(=O)N[C@@H](CCC(=O)O)C(=O)N[C@H](C(=O)NCC(N)=O)CSCC(=O)N[C@@H](Cc2ccc(O)cc2)C(=O)N(C)[C@@H](C)C(=O)N[C@@H](CC(=O)O)C(=O)N2CCC[C@H]2C(=O)N[C@@H](Cc2cnc[nH]2)C(=O)N[C@@H](CCCCN)C(=O)N2C[C@H](O)C[C@H]2C(=O)N[C@@H](Cc2c[nH]c3ccccc23)C(=O)N[C@@H](CCCCN)C(=O)N[C@@H](Cc2c[nH]c3ccccc23)C(=O)N1C` [Example 5069] ({CH2CO}-Y[NMeA]DPHK[Hyp]WKW[NMeNle][NMeNle]ECG-NH2; thioether N-14), for which the figures for the concentration for half-maximal inhibition (IC50) (at Human PD-L1/PD-1 (setting [2]); in assay [1] (setting [3])) were 0.385 to 6.74 nM and 0.158 to 4.71 nM, respectively.

`CCCC[C@H]1C(=O)N(C)CC(=O)N[C@@H](CC(=O)O)C(=O)N[C@@H](C(C)C)C(=O)N(C)[C@@H](Cc2ccccc2)C(=O)N[C@@H](Cc2ccc(O)cc2)C(=O)N(C)CC(=O)N[C@@H](Cc2c[nH]c3ccccc23)C(=O)N[C@@H](Cc2ccc(O)cc2)C(=O)N[C@@H](CC2CCCCC2)C(=O)N[C@H](C(=O)NCC(N)=O)CSCC(=O)N[C@@H](Cc2ccccc2)C(=O)N(C)[C@@H](Cc2ccccc2)C(=O)N1C` [Example 3096] (HELM PEPTIDE1{[O=C(C[*:3])[*:2]].F.[meF].[CCCC[C@@H](C(=O)[*:2])N(C)[*:1]].[Sar].D.V.[meF].Y.[Sar].W.Y.[Cha].C.G.[am]}$PEPTIDE1,PEPTIDE1,1:R3-14:R3$$$V2.0): the half-inhibitory concentration (IC50) on Human PD-L1/PD-1 (setting [2]) was 6.76 to 30.3 nM; in assay [1] (setting [4]) it was 4.78 to 72.9 nM.

In the case of `CCCC[C@H]1C(=O)N2C[C@H](O)C[C@@H]2C(=O)N[C@H](CC(=O)NC(c2ccccc2)(c2ccccc2)c2ccccc2)C(=O)N[C@@H](C(C)C)C(=O)N(C)[C@@H](Cc2ccccc2)C(=O)N[C@@H](Cc2ccc(O)cc2)C(=O)N(C)[C@H](CCC(=O)O)C(=O)N[C@@H](Cc2c[nH]c3ccccc23)C(=O)N[C@@H](Cc2ccc(O)cc2)C(=O)N[C@@H](CCCCN)C(=O)N[C@H](C(=O)NCC(N)=O)CSCC(=O)N[C@@H](Cc2ccccc2)C(=O)N(C)[C@@H](Cc2ccccc2)C(=O)N1C` [Example 3595] ({CH2CO}-F[NMeF][NMeNle][d(cisHyp)][dD](NHTrityl)V[NMeF]Y[dNMeE]WYKCG-NH2; thioether N-13), the IC50 at Human PD-L1/PD-1 (HTRF IC50 value, value given instead of cluster) turned out to be 991 nM; in assay [1] (CBA IC50 value, cell binding assay, cell line not given, value given instead of cluster) it was 123 nM.

With `CCCC[C@H]1C(=O)N(C)[C@@H](CCCC)C(=O)N[C@@H](CCCNC(=N)N)C(=O)N[C@H](C(=O)NCC(N)=O)CSCC(=O)N[C@@H](Cc2ccc(O)cc2)C(=O)N(C)[C@@H](C)C(=O)N[C@@H](CCC(=O)O)C(=O)N2CCC[C@H]2C(=O)N[C@@H](Cc2cnc[nH]2)C(=O)N[C@@H](CC(C)C)C(=O)N2C[C@H](O)C[C@H]2C(=O)N[C@@H](Cc2c[nH]c3ccccc23)C(=O)N[C@@H](CO)C(=O)N[C@@H](Cc2c[nH]c3ccccc23)C(=O)N1C` [Example 1175] ({CH2CO}-Y[NMeA]EPHL[Hyp]WSW[NMeNle][NMeNle]RCG-NH2; thioether N-14), the half-maximal inhibitory concentration (IC50) on Human PD-L1/PD-1 (setting [2]) was in the range of 0.385 to 6.74 nM; in assay [1] (setting [4]), 4.78 to 72.9 nM.

For the compound `CCCC[C@H]1C(=O)N(C)[C@@H](CCCC)C(=O)N[C@@H](CO)C(=O)N[C@H](C(=O)NCC(N)=O)CSCC(=O)N[C@@H](Cc2ccccc2)C(=O)N(C)[C@@H](C)C(=O)N[C@@H](CC(N)=O)C(=O)N2CCC[C@H]2C(=O)N[C@@H](Cc2cnc[nH]2)C(=O)N[C@@H](CC(C)C)C(=O)N(C)CC(=O)N[C@@H](Cc2c[nH]c3ccccc23)C(=O)N[C@@H](CO)C(=O)N[C@@H](Cc2c[nH]c3ccccc23)C(=O)N1C` [Example 10001] ({CH2CO}-F[NMeA]NPHL[Sar]WSW[NMeNle][NMeNle]SCG-NH2; thioether N-14), the half-inhibitory concentration (IC50) at Human PD-L1/PD-1 (setting [2]) is 6.76 to 30.3 nM; in assay [1] (setting [3]), over 74.3 nM.

As for `CCCC[C@H]1C(=O)N[C@@H](CCCNC(=N)N)C(=O)NC(C(=O)NCC(N)=O)CSCC(=O)N[C@@H](Cc2ccc(O)cc2)C(=O)N(C)[C@@H](C)C(=O)N[C@@H](CC(N)=O)C(=O)N2CCC[C@H]2C(=O)N[C@@H](CO)C(=O)N[C@@H](CC(C)C)C(=O)N2C[C@H](O)C[C@H]2C(=O)N[C@@H](Cc2c[nH]c3ccccc23)C(=O)N[C@@H](CO)C(=O)N[C@@H](Cc2csc3ccccc23)C(=O)N(C)[C@@H](CCSC)C(=O)N1C` (some centres unmarked) [Example 9099] ({CH2CO}-Y[NMeA]NPSL[Hyp]WS[Bta][NMeM][NMeNle]R[ξC]G-NH2; thioether N-14), the 50% inhibitory concentration (IC50) on Human PD-L1/PD-1 (setting [2]) was in the range of 0.385 to 6.74 nM; in assay [1] (setting [3]), 0.158 to 4.71 nM.

Turning to `CCCC[C@H]1C(=O)N(C)[C@@H](CCCC)C(=O)N[C@@H](CCCNC(=N)N)C(=O)N[C@H](C(=O)NCC(N)=O)CSCC(=O)N[C@@H](Cc2ccc(CN)cc2)C(=O)N(C)[C@@H](C)C(=O)N[C@@H](CC(N)=O)C(=O)N2CCC[C@H]2C(=O)N[C@@H](Cc2cnc[nH]2)C(=O)N[C@@H](CC(C)C)C(=O)N2C[C@H](O)C[C@H]2C(=O)N[C@@H](Cc2c[nH]c3ccccc23)C(=O)N[C@@H](CO)C(=O)N[C@@H](Cc2c[nH]c3ccccc23)C(=O)N1C` [Example 7053] ({CH2CO}-[Phe(4-CH2NH2)][NMeA]NPHL[Hyp]WSW[NMeNle][NMeNle]RCG-NH2; thioether N-14), the IC50 lay in the range of 6.76 to 30.3 nM on Human PD-L1/PD-1 (setting [2]) and 4.78 to 72.9 nM in assay [1] (setting [3]).

Take `CCCC[C@H]1C(=O)N2CCCC[C@@H]2C(=O)N[C@@H](CC(=O)O)C(=O)N[C@@H](C(C)C)C(=O)N(C)[C@@H](Cc2ccccc2)C(=O)N[C@@H](Cc2ccc(O)cc2)C(=O)N(C)CC(=O)N[C@@H](Cc2c[nH]c3ccccc23)C(=O)N[C@@H](Cc2ccc(O)cc2)C(=O)N[C@@H](CC(C)C)C(=O)N[C@H](C(=O)NCC(N)=O)CSCC(=O)N[C@@H](Cc2ccccc2)C(=O)N(C)[C@@H](Cc2ccccc2)C(=O)N1C` [Example 3573] ({CH2CO}-F[NMeF][NMeNle][dPip]DV[NMeF]Y[Sar]WYLCG-NH2; thioether N-13): the values for the 50% inhibitory concentration (IC50) (at Human PD-L1/PD-1 (setting [2]); in assay [1] (setting [3])) were 6.76 to 30.3 nM and 4.78 to 72.9 nM, respectively.

Turning to `CC(C)C[C@@H]1NC(=O)[C@H](Cc2ccc(O)cc2)NC(=O)[C@H](Cc2c[nH]c3ccccc23)NC(=O)CN(C)C(=O)[C@H](Cc2ccc(O)cc2)NC(=O)[C@H](Cc2ccccc2)N(C)C(=O)[C@H](C(C)C)NC(=O)[C@H](CC(=O)O)NC(=O)CN(C)C(=O)[C@H](Cc2ccc(O)cc2)N(C)C(=O)[C@H](Cc2ccccc2)N(C)C(=O)[C@H](Cc2ccccc2)NC(=O)CSC[C@@H](C(=O)NCC(N)=O)NC1=O` [Example 3060-A] (HELM PEPTIDE1{[O=C(C[*:3])[*:2]].F.[meF].[meY].[Sar].D.V.[meF].Y.[Sar].W.Y.L.C.G.[am]}$PEPTIDE1,PEPTIDE1,1:R3-14:R3$$$V2.0), the IC50 was 6.76 to 30.3 nM on Human PD-L1/PD-1 (setting [2]) and 4.78 to 72.9 nM in assay [1] (setting [4]).

Regarding `CCCC[C@H]1C(=O)N(C)[C@@H](CCCC)C(=O)NC(CCCNC(=N)N)C(=O)N[C@H](C(=O)NCC(N)=O)CSCC(=O)N[C@@H](Cc2ccc(O)cc2)C(=O)N(C)[C@@H](C)C(=O)N[C@@H](CC(N)=O)C(=O)N2CCC[C@H]2C(=O)N[C@@H](CN)C(=O)N[C@@H](CC(C)C)C(=O)N2C[C@H](O)C[C@H]2C(=O)N[C@@H](Cc2c[nH]c3ccccc23)C(=O)N[C@@H](CO)C(=O)N[C@@H](Cc2c(-c3ccc(OCC)cc3)[nH]c3ccccc23)C(=O)N1C` (some centres unmarked) [Example 7009] ({CH2CO}-Y[NMeA]NP[Dap]L[Hyp]WS[X2][NMeNle][NMeNle][ξR]CG-NH2; thioether N-14), the IC50 lay within 0.385 to 6.74 nM at Human PD-L1/PD-1 (setting [2]) and 0.158 to 4.71 nM in assay [1] (setting [3]).
